This is an account of results in patent publication US12421249B2, “Inhibitors of APOL1 and methods of using same” (Vertex Pharmaceuticals Incorporated, priority 2020, dated 2025).

pIC50: −log10 of the molar value.

The target in this assay is T1, APOL1 G1 (Homo sapiens, UniProt O14791, I384M/S342G).
T1 sequence (O14791 28-398 S342G/I384M): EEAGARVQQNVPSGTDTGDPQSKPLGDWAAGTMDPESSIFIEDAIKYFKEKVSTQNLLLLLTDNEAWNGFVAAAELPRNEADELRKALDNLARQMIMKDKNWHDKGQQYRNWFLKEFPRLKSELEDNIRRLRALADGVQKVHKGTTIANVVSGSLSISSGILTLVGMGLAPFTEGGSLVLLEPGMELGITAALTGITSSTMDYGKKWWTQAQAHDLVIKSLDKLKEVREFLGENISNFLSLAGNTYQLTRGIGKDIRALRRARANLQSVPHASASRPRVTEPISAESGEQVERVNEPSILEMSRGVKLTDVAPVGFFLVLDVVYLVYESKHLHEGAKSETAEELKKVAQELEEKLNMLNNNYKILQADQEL
The assay can be described thus: Trypanosoma brucei brucei Lysis Assay Using APOL1 Recombinant Protein (AlamarBlue viability readout). The assay is classed as cell-based. The following applies: Trypanosome Assay. In a few lines:
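Percent viability comes from AlamarBlue (resazurin→resorufin) fluorescence interpolated on a standard curve of known parasite numbers, with no-APOL1 wells as 100%. Parasites (Lister 427 bloodstream form, 120,000/well, serum-free assay medium) meet 0.05 μg/mL APOL1 (~EC90). Compounds span a 10-point series, 0.1% DMSO final.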
Background: The colour change of resazurin is a common sign of viable cells or microbes.

Take `[2H]C1([2H])O[C@@]2(C[C@@H](c3cn(C)nn3)N[C@@H](C)C2)c2sc(Cl)cc2[C@]1([2H])O` [Compound 385, (2S,4S,4′S,6S)-2′-chloro-4′,5′,5′-trideuterio-2-methyl-6-(1-methyltriazol-4-yl)spiro[piperidine-4,7′-thieno[2,3-c]pyran]-4′-ol]: where the note is “IP50 = IC50 for cell proliferation, read-out: Trypanosome Assay IP50”, the pIC50 was more than 7.30. Moreover, the Emax (read-out: Trypanosome Assay Max Activity (%)) was 104%.
